# Test results published in ChEMBL document CHEMBL1201862, “PubChem BioAssay data set” (2004).
# The source made the active and inactive calls.
# Tests used:
# Estrogen receptor beta [1] = target: T1, Estrogen receptor beta (Homo sapiens, UniProt Q92731);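 also: recombinant ER-beta bound to coactivator SRC1 peptide in presence of estradiol agonist; inhibitors block coactivator peptide binding and lower the FRET signal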
# Estrogen receptor beta [2] = target: T1, Estrogen receptor beta; assay: blockers of SRC-3 recruitment to ERβ – biochemical, ELISA, streptavidin-HRP readout, orthogonal assay, confirmation (AID 1060)
# Estrogen receptor = target: T2, Estrogen receptor (Homo sapiens, UniProt P03372);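 also: potency for inhibiting coactivator peptide recruitment to the receptor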
# T2 sequence (P03372 whole entry): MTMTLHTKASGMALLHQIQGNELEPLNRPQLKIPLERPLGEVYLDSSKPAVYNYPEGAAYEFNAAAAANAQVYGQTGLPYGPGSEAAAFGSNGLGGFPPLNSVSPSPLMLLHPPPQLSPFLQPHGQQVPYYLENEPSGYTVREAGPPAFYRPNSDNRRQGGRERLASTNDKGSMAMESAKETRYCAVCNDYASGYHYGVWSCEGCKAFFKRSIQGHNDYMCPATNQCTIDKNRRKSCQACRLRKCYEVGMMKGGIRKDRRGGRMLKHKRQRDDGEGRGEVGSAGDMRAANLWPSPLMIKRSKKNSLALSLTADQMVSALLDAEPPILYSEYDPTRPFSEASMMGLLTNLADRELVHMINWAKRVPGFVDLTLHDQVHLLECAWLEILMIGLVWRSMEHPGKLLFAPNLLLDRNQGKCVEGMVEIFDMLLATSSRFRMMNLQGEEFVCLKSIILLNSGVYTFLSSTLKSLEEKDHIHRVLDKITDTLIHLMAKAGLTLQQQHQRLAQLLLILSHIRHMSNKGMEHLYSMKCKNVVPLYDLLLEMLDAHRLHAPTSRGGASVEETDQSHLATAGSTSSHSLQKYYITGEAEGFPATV
# Bcl-2-like protein 10 = Bcl-2-like protein 10 (Homo sapiens, UniProt Q9HD36); assay: Bcl-B/TR3 peptide binding disruption – biochemical, fluorescence polarization, FITC-TR3 peptide, selectivity assay for Bfl-1 inhibitor project, primary screen (AID 748);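 also: fluorescence polarization from a fluorescein-labelled TR3 peptide binding purified Bcl-B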
# Chain of Bcl-2-like protein 10 (Q9HD36 whole entry, the tested form may be a part): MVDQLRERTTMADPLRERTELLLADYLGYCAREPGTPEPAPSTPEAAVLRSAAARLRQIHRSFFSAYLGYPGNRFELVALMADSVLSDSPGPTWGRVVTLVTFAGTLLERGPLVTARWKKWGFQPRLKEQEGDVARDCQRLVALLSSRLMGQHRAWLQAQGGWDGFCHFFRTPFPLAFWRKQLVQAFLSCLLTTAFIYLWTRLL
# [3] = target: T3, Carboxy-terminal domain RNA polymerase II polypeptide A small phosphatase 1 (Homo sapiens, UniProt Q9GZU7); assay: CTDSP1 inhibitors, concentration-response, biochemical, absorbance readout, ultra-high-throughput screen actives (AID 540297); format: functional
# T3 sequence (Q9GZU7 whole entry): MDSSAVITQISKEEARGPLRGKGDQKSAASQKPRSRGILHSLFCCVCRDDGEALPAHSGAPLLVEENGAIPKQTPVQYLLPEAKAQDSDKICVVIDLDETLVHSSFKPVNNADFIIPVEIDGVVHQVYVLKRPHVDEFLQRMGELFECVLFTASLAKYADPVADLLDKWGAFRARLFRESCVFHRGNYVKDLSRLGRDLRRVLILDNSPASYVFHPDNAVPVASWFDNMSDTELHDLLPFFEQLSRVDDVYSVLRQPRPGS
# [4] = target: Transitional endoplasmic reticulum ATPase (Homo sapiens, UniProt P55072); assay: p97 ATPase inhibitors, dose response, biochemical (AID 1534)
# Chain of Transitional endoplasmic reticulum ATPase (Homo sapiens, UniProt P55072) (P55072 whole entry): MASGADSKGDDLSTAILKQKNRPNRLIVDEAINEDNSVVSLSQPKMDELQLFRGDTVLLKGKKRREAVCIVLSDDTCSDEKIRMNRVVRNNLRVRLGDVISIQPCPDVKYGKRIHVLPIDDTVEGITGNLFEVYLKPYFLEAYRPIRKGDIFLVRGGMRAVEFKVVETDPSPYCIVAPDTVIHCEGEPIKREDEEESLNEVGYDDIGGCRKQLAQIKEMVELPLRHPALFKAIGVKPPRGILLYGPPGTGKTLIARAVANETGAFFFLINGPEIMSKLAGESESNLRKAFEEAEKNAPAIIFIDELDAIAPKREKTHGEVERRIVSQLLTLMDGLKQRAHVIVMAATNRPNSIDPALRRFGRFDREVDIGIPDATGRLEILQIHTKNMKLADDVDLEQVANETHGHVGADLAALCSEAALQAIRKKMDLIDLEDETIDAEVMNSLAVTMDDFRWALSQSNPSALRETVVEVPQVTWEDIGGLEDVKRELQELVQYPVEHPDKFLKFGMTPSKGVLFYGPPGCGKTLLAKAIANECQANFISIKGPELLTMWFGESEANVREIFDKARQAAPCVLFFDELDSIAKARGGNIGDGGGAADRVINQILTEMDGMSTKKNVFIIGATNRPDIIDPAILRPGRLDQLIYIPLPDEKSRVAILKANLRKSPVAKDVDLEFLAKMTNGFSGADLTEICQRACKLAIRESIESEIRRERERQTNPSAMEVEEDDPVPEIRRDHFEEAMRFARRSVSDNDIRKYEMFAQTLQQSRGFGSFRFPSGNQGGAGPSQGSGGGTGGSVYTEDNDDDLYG
# [5] = target: Transitional endoplasmic reticulum ATPase (Homo sapiens, UniProt P55072, C522A); assay: C522A mutant p97 ATPase inhibitors, dose response, counter-screen for p97 inhibitor project, biochemical, luminescence (AID 1544)
# Chain of Transitional endoplasmic reticulum ATPase (Homo sapiens, UniProt P55072, C522A) (P55072 2-806 C522A limits assumed): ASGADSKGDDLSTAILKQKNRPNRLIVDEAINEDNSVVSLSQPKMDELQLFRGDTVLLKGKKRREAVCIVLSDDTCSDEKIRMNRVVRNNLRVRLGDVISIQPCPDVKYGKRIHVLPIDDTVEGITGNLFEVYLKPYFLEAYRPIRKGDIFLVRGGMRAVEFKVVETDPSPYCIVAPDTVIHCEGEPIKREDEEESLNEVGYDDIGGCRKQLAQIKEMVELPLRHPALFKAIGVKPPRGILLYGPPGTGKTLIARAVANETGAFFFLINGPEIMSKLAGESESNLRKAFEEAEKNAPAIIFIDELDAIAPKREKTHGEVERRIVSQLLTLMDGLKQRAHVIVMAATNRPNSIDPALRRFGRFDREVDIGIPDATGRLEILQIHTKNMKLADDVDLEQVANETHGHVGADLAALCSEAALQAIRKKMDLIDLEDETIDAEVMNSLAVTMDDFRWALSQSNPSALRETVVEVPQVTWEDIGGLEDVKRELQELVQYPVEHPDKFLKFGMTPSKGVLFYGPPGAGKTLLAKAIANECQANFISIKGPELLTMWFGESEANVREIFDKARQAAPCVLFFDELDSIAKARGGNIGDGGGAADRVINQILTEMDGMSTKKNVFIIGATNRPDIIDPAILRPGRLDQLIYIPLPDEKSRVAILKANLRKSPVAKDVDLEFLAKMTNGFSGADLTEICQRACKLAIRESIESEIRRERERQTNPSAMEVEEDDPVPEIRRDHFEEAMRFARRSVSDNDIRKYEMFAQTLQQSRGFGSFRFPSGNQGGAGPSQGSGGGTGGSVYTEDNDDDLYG
# NS3 = NS3 (Hepatitis C virus, UniProt A3EZJ3); assay: PubChem AID 2173; parameters: species or system Hepacivirus hominis
# Chain of NS3 (A3EZJ3 whole entry): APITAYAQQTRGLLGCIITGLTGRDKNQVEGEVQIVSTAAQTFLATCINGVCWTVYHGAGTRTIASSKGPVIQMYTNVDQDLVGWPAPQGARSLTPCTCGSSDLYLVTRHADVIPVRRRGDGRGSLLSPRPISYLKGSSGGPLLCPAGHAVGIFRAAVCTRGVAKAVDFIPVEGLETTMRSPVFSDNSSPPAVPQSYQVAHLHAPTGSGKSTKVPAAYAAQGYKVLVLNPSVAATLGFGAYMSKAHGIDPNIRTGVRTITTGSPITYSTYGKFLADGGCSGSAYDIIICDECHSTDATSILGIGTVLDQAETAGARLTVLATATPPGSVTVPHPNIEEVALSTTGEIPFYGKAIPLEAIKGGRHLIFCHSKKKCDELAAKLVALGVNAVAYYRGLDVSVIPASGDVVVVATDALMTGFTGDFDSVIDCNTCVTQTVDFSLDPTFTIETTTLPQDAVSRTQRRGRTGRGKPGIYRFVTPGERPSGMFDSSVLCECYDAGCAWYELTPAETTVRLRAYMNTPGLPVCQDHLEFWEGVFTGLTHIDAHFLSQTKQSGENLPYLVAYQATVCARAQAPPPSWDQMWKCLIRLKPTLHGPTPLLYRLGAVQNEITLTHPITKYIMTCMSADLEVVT
# Beta-galactosidase = Beta-galactosidase (Escherichia coli, UniProt Q8VNN2); assay: detection-enzyme interference by beta-gal modulators – biochemical, E. coli enzyme, set 3, artefact control for CCR6 antagonist project, dose response (AID 504712); format: functional
# [6] = target: T4, Mannose-6-phosphate isomerase (Homo sapiens, UniProt P34949); assay: MPI inhibition at elevated mannose 6-phosphate – biochemical, fluorescence intensity, high mannose 6-phosphate, primary screen (AID 1220)
# T4 sequence (P34949 whole entry): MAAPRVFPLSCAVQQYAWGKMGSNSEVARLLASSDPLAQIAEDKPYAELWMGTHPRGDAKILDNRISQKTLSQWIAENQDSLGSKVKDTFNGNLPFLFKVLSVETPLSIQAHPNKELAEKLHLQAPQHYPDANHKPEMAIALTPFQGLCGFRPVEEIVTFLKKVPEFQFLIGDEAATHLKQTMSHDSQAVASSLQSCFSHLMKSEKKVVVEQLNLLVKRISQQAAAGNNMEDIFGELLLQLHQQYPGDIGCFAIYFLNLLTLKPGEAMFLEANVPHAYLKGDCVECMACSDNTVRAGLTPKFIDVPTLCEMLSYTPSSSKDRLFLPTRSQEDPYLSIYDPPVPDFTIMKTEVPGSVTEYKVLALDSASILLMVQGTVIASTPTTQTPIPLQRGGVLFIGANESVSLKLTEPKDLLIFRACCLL
# [7] = target: T5, Heat shock factor protein 1 (Mus musculus, UniProt P38532); assay: enhancement of HSF1-driven luciferase signal – cell-based, NIH3T3, luminescence, dose retest, confirmation (AID 435004); format: functional;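 also: stress induced by proteasome inhibitor MG132 added 30 min after compound; luciferase reporter driven by HSF1 response element in NIH3T3 cells; actives raise luminescence as potentiators of the MG132 stress response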
# T5 sequence (P38532 whole entry): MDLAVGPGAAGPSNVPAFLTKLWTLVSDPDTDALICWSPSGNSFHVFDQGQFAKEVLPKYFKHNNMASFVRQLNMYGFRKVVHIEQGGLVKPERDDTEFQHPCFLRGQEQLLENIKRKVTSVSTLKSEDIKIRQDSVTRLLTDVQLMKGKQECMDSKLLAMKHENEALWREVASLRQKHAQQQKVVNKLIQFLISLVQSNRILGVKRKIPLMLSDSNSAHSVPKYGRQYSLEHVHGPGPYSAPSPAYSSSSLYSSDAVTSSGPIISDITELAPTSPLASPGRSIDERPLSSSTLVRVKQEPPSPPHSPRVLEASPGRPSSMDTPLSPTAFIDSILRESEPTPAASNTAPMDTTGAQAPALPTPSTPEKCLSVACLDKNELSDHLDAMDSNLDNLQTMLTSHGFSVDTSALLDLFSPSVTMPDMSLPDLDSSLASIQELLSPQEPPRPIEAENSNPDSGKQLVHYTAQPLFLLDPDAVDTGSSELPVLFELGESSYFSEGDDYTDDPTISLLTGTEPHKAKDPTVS
# [8] = target: T4, Mannose-6-phosphate isomerase; assay: MPI enzyme activity inhibition – biochemical, fluorescence intensity, coupled assay, primary screen (AID 1209)
# Galanin receptor type 2 = Galanin receptor type 2 (Homo sapiens, UniProt O43603); assay: Dose Response cell-based high-throughput screening assay to identify antagonists of galanin receptor 2 (GALR2). [Related pubchem assays: 828, 866 ]; format: functional
# Chain of Galanin receptor type 2 (O43603 whole entry): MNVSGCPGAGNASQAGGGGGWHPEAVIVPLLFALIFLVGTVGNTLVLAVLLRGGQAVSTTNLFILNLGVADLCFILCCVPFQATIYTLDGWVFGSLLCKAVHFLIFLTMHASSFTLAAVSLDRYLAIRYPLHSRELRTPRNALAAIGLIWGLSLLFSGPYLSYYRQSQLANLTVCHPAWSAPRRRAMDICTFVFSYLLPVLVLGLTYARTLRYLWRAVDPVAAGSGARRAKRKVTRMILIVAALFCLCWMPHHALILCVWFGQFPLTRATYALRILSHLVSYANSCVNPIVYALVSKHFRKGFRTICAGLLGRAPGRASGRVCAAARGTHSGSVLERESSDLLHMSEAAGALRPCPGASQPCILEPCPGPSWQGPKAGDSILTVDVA
# [9] = target: C-C chemokine receptor type 6 (Homo sapiens, UniProt P51684); assay: antagonism of CCR6 beta-arrestin recruitment – cell-based, luminescent beta-arrestin readout, dose response (AID 504728); format: functional
# [10] = microbe, parasite or virus in culture; format: functional; settings: Mycobacterium tuberculosis
# [11] = target: Lysosomal acid glucosylceramidase (Homo sapiens, UniProt P04062); assay: Dose response cell-based high throughput screening assay to identify enhancers of beta-glucosidase activity. [Related pubchem assays: 784 ]; format: functional
# [12] = target: Photoreceptor-specific nuclear receptor (Homo sapiens, UniProt Q9Y5X4); format: functional;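 also: potency for compounds that break the NR2E3 corepressor complex and count as activators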
# [13] = target: Peroxisome proliferator-activated receptor gamma/Nuclear receptor corepressor 2 (Homo sapiens, UniProt P37231+Q9Y618); format: functional
# [14] = Cytotoxicity screening for potential Inhibitors of Bacterial Capsule Biogenesis. [Related pubchem assays (depositor defined):AID488970]; format: functional
# [15] = target: T5, Heat shock factor protein 1; assay: decrease of HSF1-responsive luciferase luminescence – cell-based, NIH3T3, dose retest, confirmation (AID 2382); format: functional;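 also: NIH3T3 fibroblasts with HSF1-driven luciferase reporter stressed by proteasome inhibitor MG132; luminescence from HSF1-driven luciferase expression after 8 hours of MG132 stress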
# [16] = target: T6, Microphthalmia-associated transcription factor (Homo sapiens, UniProt O75030); assay: reducers of TRPM1 reporter luminescence, concentration series – cell-based, SK-MEL-5, cherry-picked, set 3, MITF inhibitor project, dose response (AID 493073); format: functional;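 also: SK-MEL-5 melanoma cells with luciferase driven by the MITF target TRPM1 promoter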
# T6 sequence (O75030 whole entry): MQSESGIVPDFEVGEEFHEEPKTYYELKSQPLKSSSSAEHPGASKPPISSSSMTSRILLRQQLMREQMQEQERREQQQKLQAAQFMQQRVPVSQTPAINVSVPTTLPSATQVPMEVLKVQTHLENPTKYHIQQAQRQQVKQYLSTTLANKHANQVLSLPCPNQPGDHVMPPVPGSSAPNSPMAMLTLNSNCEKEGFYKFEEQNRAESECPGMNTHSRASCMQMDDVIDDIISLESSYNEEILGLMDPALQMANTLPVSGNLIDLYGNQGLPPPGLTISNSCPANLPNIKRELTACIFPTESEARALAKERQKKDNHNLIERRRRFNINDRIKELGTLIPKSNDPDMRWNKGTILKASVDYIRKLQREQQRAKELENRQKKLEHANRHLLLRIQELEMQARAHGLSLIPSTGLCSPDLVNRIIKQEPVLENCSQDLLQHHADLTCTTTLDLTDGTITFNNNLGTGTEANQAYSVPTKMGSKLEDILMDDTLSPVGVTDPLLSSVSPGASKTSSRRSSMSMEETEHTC
# HT-1080 = assay: HT1080 cell viability loss – fluorescence readout (AID 620); format: functional, cell-based; settings: Homo sapiens
# [17] = target: T7, Luciferin 4-monooxygenase (Photinus pyralis, UniProt P08659); assay: Counter Screen for Luciferase-based Assay Positives. [Related pubchem assays: 620, 618, 411 ]
# T7 sequence (P08659 whole entry): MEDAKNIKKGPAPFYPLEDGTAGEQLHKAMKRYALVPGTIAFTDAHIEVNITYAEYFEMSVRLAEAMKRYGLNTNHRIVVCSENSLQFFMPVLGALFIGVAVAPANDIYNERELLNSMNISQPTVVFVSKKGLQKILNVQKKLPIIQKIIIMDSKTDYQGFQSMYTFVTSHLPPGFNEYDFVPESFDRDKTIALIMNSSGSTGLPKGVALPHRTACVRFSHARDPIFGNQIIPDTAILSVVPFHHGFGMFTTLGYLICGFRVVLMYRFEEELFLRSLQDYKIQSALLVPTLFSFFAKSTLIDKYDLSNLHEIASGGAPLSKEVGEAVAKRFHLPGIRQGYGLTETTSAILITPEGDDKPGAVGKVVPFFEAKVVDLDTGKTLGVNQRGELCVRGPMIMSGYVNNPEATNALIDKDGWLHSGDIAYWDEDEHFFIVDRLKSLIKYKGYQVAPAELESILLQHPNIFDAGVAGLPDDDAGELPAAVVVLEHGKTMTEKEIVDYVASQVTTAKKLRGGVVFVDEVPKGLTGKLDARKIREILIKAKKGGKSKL
# [18] = target: T7, Luciferin 4-monooxygenase; assay: In vitro luciferase assay using purified luciferase. [Related pubchem assays: 1299, 1270, 1295, 1375, 1287, 1281, 1293, 1291, 1289, 1280, 465, 1364, 1282, 1372, 1365, 1370, 1367, 1366, 1266, 1373, 1292, 1290, 1302, 1371, 1283, 1271, 1294, 1374, 1368, 1369 ]
# HEK293 [19] = assay: PMA/Ionomycin induced NF-kB luciferase assay in 293- NF-kB-Luc stable cells. [Related pubchem assays: 1299, 1270, 1295, 1375, 1287, 1281, 1293, 1291, 1289, 1280, 465, 1364, 1282, 1372, 1365, 1370, 1367, 1366, 1269, 1373, 1292, 1290, 1302, 1371, 1283, 1271, 1294, 1374, 1368, 1369 ]; format: functional, cell-based; settings: Homo sapiens
# [20] = HEK-293T viability loss, compound-treated – cell-based, uHTS hits, cytotoxicity control for B/T-cell NF-kB inhibitor project, dose response (AID 489019); format: functional;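 also: IC50 reflects cytotoxicity as loss of cell viability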
# Jurkat = assay: blockers of NF-kB activation in T cells – Jurkat, luciferase reporter, luminescence, B- and T-cell, dose response (AID 489004); format: functional, cell-based; settings: Homo sapiens;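 also: NF-kB luciferase reporter Jurkat cells stimulated with PMA plus ionomycin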
# HEK293 [21] = assay: Cytotoxicity assay in HEK293 cells. [Related pubchem assays (depositor defined):AID1266, AID1269, AID1270, AID1271, AID1280, AID1281, AID1282, AID1283, AID1287, AID1289, AID1290, AID1291, AID1292, AID1293, AID1294, AID1295, AID1299, AID1302, AID1364, AID1365, AID1366, AID1367, AID1369, AID1370, AID1371, AID1372, AID1373, AID1374, AID1375, AID1384 …; format: functional, cell-based; settings: Homo sapiens
# X-box-binding protein 1 = X-box-binding protein 1 (Homo sapiens, UniProt P17861); format: functional, Cricetulus griseus;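 also: confirmatory dose-response counter-screen serving a CHOP assay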
# HeLa = assay: viability loss in HeLa cells – cell-based, 24 h, cherry-picked samples, cytotoxicity control, dose response (AID 504726); format: functional; settings: Homo sapiens;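 also: potency for cytotoxicity as loss of luminescence signal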
# [22] = target: T8, Eukaryotic translation initiation factor 2-alpha kinase 3 (Homo sapiens, UniProt Q9NZJ5); assay: Dose response cell-based high-throughput screening assay to measure PERK inhibition. [Related pubchem assays: 1416 ]; format: functional
# T8 sequence (Q9NZJ5 whole entry): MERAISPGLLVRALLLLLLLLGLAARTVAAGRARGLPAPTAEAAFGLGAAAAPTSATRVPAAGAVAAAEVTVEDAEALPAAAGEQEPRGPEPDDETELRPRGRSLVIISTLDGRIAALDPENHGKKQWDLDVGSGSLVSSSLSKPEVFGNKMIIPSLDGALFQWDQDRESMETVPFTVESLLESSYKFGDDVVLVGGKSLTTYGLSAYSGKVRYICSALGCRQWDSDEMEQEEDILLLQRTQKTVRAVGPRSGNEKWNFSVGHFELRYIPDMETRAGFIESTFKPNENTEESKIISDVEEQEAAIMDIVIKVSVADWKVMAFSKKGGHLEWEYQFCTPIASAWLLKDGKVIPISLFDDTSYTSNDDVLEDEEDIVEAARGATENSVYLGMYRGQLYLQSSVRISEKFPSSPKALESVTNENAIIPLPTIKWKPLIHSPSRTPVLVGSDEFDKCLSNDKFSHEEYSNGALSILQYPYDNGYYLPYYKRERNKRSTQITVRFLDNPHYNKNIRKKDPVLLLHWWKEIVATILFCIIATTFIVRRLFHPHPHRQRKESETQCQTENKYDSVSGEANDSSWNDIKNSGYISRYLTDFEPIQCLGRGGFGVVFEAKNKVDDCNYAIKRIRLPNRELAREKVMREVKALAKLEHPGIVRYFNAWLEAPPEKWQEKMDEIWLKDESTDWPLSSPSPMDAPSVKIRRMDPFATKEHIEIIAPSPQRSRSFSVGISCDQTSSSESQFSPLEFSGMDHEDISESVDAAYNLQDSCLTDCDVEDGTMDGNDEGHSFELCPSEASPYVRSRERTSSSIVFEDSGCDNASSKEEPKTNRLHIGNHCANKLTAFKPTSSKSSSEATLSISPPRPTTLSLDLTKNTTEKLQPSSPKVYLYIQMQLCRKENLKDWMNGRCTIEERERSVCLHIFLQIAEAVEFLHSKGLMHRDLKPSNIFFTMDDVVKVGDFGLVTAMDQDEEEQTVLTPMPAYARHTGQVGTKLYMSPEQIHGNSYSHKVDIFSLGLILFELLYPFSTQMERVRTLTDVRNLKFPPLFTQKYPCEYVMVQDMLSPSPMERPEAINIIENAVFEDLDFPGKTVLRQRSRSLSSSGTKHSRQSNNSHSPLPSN
# [23] = target: T8, Eukaryotic translation initiation factor 2-alpha kinase 3; assay: Counterscreen assay for PERK inhibitors: Dose response cell-based high throughput screening assay to measure inhibition of PERK at 6 hours. [Related pubchem assays: 1522, 1416 ]; format: functional
# T1 sequence (Q92731 whole entry): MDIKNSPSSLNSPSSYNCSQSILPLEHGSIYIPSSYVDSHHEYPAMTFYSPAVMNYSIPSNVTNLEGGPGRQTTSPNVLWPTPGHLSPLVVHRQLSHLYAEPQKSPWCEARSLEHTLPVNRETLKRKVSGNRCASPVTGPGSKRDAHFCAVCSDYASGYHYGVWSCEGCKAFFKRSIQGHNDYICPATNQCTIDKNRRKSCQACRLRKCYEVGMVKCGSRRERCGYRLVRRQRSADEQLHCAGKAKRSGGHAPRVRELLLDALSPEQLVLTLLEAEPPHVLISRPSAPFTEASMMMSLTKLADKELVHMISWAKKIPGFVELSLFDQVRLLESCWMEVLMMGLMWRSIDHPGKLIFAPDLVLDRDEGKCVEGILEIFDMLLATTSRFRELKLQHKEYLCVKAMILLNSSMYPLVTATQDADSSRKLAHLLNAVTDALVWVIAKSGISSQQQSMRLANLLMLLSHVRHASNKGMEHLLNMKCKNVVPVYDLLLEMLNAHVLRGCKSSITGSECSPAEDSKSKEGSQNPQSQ
compound,measurement,setting,value
COc1ccc2c(c1)c(=O)oc1cc(OCC(=O)NC3CCCCC3)ccc12,IC50,Estrogen receptor beta [1],7.51 µM (active)
same,IC50,Estrogen receptor beta [2],> 50 µM (not active)
same,IC50,Estrogen receptor,17.9 µM (active)
same,IC50,Bcl-2-like protein 10,34.6 µM (active)
same,IC50,[3],6.74 µM (active)
O=C(CCl)Nc1nc(-c2ccco2)c(-c2ccco2)s1,IC50,[4],> 50 µM (not active)
same,IC50,[5],> 50 µM (not active)
same,IC50,NS3,47.8 µM (not active)
O=[N+]([O-])c1cc(-c2ncccn2)c([N+](=O)[O-])s1,IC50,Beta-galactosidase,> 66.6 µM (inactive)
same,IC50,[6],7.48 µM (active)
same,EC50,[7],6.64 µM (active)
same,IC50,[8],6.92 µM (active)
same,IC50,Galanin receptor type 2,8.96 µM (active)
same,IC50,[9],24 µM (inactive)
same,CC50,[10],23.2 µM (active)
Cc1nc(SCC(=O)Nc2ccc3c(c2)OCCO3)c2oc3ccccc3c2n1,EC50,[11],> 50 µM (not active)
Cc1cccc(NC(=O)CSc2ncnc3c2oc2ccccc23)c1,IC50,[12],> 39.8 µM (not active)
same,IC50,[13],3.35 µM (active)
Cc1cccc(C)c1NC(=O)C[N+](C)(C)CC(O)COc1cccc2ccccc12 (configuration not stated),CC50,[14],22 µM (active)
CC1CCN(c2nc3ccc(C(=O)O)cc3s2)CC1,EC50,[15],0.268 µM (active)
same,AC50,[16],1.25 µM (active)
same,EC50,HT-1080,> 50 µM (not active)
same,EC50,[17],7.86 µM (active)
same,EC50,[18],> 8 µM (not active)
same,EC50,HEK293 [19],12.5 µM (not active)
same,IC50,[20],> 80 µM (inactive)
same,IC50,Jurkat,1.82 µM (active)
same,EC50,HEK293 [21],13.1 µM (inactive)
Cc1cccc(/C=C/c2nc(O)c3ccccc3n2)c1,Absolute IC50 (XBP1),X-box-binding protein 1,10 µM
COc1cccc(NC(=O)N(CCN(C)C)C(C)c2cccnc2)c1 (configuration not stated),AC50,HeLa,123 µM (active)
O=C(N/N=C/c1ccncc1)c1ccccc1,EC50,[22],> 55.7 µM (not active)
same,EC50,[23],> 55.7 µM (not active)
